Assay results from PubChem BioAssay AID250 (DTP/NCI, 2004).
Where “and” joins values, the source holds several entries; their conditions need not be identical. Identical values can stand only once. Toxic doses and inconclusive results are not listed.

Test system: BDF1 mice, L1210 leukemia sc, survival T/C
Test: NCI In Vivo Anticancer Drug Screen. Data for tumor model L1210 Leukemia (subcutaneous) in B6D2F1 (BDF1) mice
Settings: endpoint: median survival time, higher = longer survival
Method: The antitumor activity of compounds was measured in mice bearing transplantable tumors. Survival or tumor size were measured and the results are expressed as the measurement made in the treated group (T) divided by the measurement made in the vehicle treated control group (C). The tumor model used in this assay is L1210 Leukemia (subcutaneous) in B6D2F1 (BDF1) mice

## COc1cccc2c1C(=O)c1c(O)c3c(c(O)c1C2=O)C[C@@](O)(C(=O)CO)C[C@@H]3OC1CC(N)C(O)C(C)O1 (some centres undefined)
dose: 0.39 mg/kg/injection, schedule: Q03HX008 (ip), vehicle: water
  T/C: 88 % of control
dose: 0.39 mg/kg/injection, schedule: Q03HX008 (sc), vehicle: water
  T/C: 100 % of control
dose: 0.65 mg/kg/injection, schedule: Q01DX005 (ip), vehicle: water
  T/C: 95 % of control
dose: 0.65 mg/kg/injection, schedule: Q01DX005 (sc), vehicle: water
  T/C: 95 % of control
dose: 0.65 mg/kg/injection, schedule: Q03HX008 (ip), vehicle: water
  T/C: 100 % of control (2×) and 111 % of control
dose: 1.0 mg/kg/injection, schedule: Q04DX003 (ip), vehicle: saline
  T/C: 92 % of control
dose: 1.08 mg/kg/injection, schedule: Q01DX005 (ip), vehicle: water
  T/C: 95 % of control
dose: 1.08 mg/kg/injection, schedule: Q01DX005 (sc), vehicle: water
  T/C: 100 % of control
dose: 1.08 mg/kg/injection, schedule: Q03HX008 (ip), vehicle: water
  T/C: 100 % of control and 105 % of control and 111 % of control
dose: 1.8 mg/kg/injection, schedule: Q01DX005 (ip), vehicle: water
  T/C: 100 % of control
dose: 1.8 mg/kg/injection, schedule: Q01DX005 (sc), vehicle: water
  T/C: 110 % of control
dose: 1.8 mg/kg/injection, schedule: Q03HX008 (ip), vehicle: water
  T/C: 111 % of control
dose: 1.8 mg/kg/injection, schedule: Q04DX003 (sc), vehicle: water
  T/C: 111 % of control
dose: 2.0 mg/kg/injection, schedule: Q04DX003 (ip), vehicle: saline
  T/C: 94 % of control
dose: 3.0 mg/kg/injection, schedule: Q01DX001 (sc), vehicle: water
  T/C: 111 % of control
dose: 3.0 mg/kg/injection, schedule: Q01DX005 (sc), vehicle: water
  T/C: 110 % of control
dose: 3.0 mg/kg/injection, schedule: Q04DX003 (sc), vehicle: water
  T/C: 116 % of control
dose: 4.0 mg/kg/injection, schedule: Q04DX003 (ip), vehicle: saline
  T/C: 92 % of control
dose: 5.0 mg/kg/injection, schedule: Q01DX001 (iv), vehicle: water
  T/C: 111 % of control and 115 % of control
dose: 5.0 mg/kg/injection, schedule: Q01DX001 (sc), vehicle: water
  T/C: 111 % of control
dose: 5.0 mg/kg/injection, schedule: Q04DX003 (sc), vehicle: water
  T/C: 122 % of control
dose: 8.0 mg/kg/injection, schedule: Q04DX003 (ip), vehicle: saline
  T/C: 91 % of control
dose: 8.4 mg/kg/injection, schedule: Q01DX001 (iv), vehicle: water
  T/C: 122 % of control
dose: 14.0 mg/kg/injection, schedule: Q01DX001 (sc), vehicle: water
  T/C: 111 % of control
dose: 14.0 mg/kg/injection, schedule: Q04DX003 (sc), vehicle: water
  T/C: 94 % of control
dose: 23.0 mg/kg/injection, schedule: Q01DX001 (iv), vehicle: water
  T/C: 67 % of control

## CC[C@]1(O)C[C@H]2CN(CCc3c([nH]c4ccccc34)[C@@](C(=O)OC)(c3cc4c(cc3OC)N(C=O)[C@H]3[C@@](O)(C(=O)OC)[C@H](OC(C)=O)[C@]5(CC)C=CCN6CC[C@]43[C@@H]65)C2)C1
dose: 0.25 mg/kg/injection, schedule: Q01DX001 (sc), vehicle: water
  T/C: 100 % of control and 101 % of control
dose: 0.5 mg/kg/injection, schedule: Q01DX001 (sc), vehicle: water
  T/C: 104 % of control and 105 % of control
dose: 0.65 mg/kg/injection, schedule: Q01DX Z (oral), vehicle: water
  T/C: 116 % of control
dose: 1.0 mg/kg/injection, schedule: Q01DX001 (sc), vehicle: water
  T/C: 111 % of control
dose: 1.08 mg/kg/injection, schedule: Q01DX Z (oral), vehicle: water
  T/C: 122 % of control
dose: 1.08 mg/kg/injection, schedule: Q02DX Z (sc), vehicle: water
  T/C: 111 % of control
dose: 1.8 mg/kg/injection, schedule: Q01DX Z (oral), vehicle: water
  T/C: 100 % of control
dose: 1.8 mg/kg/injection, schedule: Q02DX Z (sc), vehicle: water
  T/C: 122 % of control
dose: 2.0 mg/kg/injection, schedule: Q01DX001 (sc), vehicle: water
  T/C: 120 % of control and 122 % of control
dose: 3.0 mg/kg/injection, schedule: Q01DX Z (oral), vehicle: water
  T/C: 100 % of control
dose: 3.0 mg/kg/injection, schedule: Q02DX Z (sc), vehicle: water
  T/C: 122 % of control
dose: 5.0 mg/kg/injection, schedule: Q01DX Z (oral), vehicle: water
  T/C: 100 % of control
dose: 5.0 mg/kg/injection, schedule: Q02DX Z (sc), vehicle: water
  T/C: 116 % of control
dose: 8.4 mg/kg/injection, schedule: Q02DX Z (sc), vehicle: water
  T/C: 100 % of control

## Nc1ccn(C2OC(COP(=O)(O)O)C(O)C2O)c(=O)n1 (centres undefined)
dose: 3.5 mg/kg/injection, schedule: Q01DX Z (sc), vehicle: other
  T/C: 200 % of control
dose: 5.8 mg/kg/injection, schedule: Q01DX Z (sc), vehicle: other
  T/C: 244 % of control
dose: 9.7 mg/kg/injection, schedule: Q01DX Z (sc), vehicle: other
  T/C: 272 % of control
dose: 16.2 mg/kg/injection, schedule: Q01DX Z (sc), vehicle: other
  T/C: 300 % of control
dose: 27.0 mg/kg/injection, schedule: Q01DX Z (sc), vehicle: other
  T/C: 350 % of control
dose: 45.1 mg/kg/injection, schedule: Q01DX Z (sc), vehicle: other
  T/C: 305 % of control
dose: 75.1 mg/kg/injection, schedule: Q01DX Z (sc), vehicle: other
  T/C: 205 % of control

## O=C(O)CCCc1ccc(N(CCCl)CCCl)cc1
dose: 8.4 mg/kg/injection, schedule: Q01DX Z (sc), vehicle: methylcellulose (MC)
  T/C: 100 % of control
dose: 14.0 mg/kg/injection, schedule: Q01DX Z (sc), vehicle: methylcellulose (MC)
  T/C: 100 % of control
dose: 23.0 mg/kg/injection, schedule: Q01DX Z (sc), vehicle: methylcellulose (MC)
  T/C: 100 % of control
dose: 39.0 mg/kg/injection, schedule: Q01DX Z (sc), vehicle: methylcellulose (MC)
  T/C: 110 % of control

## Nc1ccc(O)cc1
dose: 130.0 mg/kg/injection, schedule: Q01DX Z (sc), vehicle: other
  T/C: 95 % of control
dose: 216.0 mg/kg/injection, schedule: Q01DX Z (sc), vehicle: other
  T/C: 116 % of control
dose: 300.0 mg/kg/injection, schedule: Q01DX Z (sc), vehicle: methylcellulose (MC)
  T/C: 112 % of control
dose: 500.0 mg/kg/injection, schedule: Q01DX Z (sc), vehicle: methylcellulose (MC)
  T/C: 112 % of control
dose: 600.0 mg/kg/injection, schedule: Q01DX Z (sc), vehicle: other
  T/C: 87 % of control

## CN1c2c(nc(N)[nH]c2=O)NCC1CCNc1ccc(C(=O)NC(CCC(=O)O)C(=O)O)cc1 (centres undefined)
dose: 6.25 mg/kg/injection, schedule: Q01DX012 (ip), vehicle: other
  T/C: 100 % of control
dose: 12.5 mg/kg/injection, schedule: Q01DX012 (ip), vehicle: other
  T/C: 111 % of control
dose: 25.0 mg/kg/injection, schedule: Q01DX012 (ip), vehicle: other
  T/C: 122 % of control
dose: 50.0 mg/kg/injection, schedule: Q01DX012 (ip), vehicle: other
  T/C: 122 % of control

## O=c1[nH]cc(S)c(=O)[nH]1
dose: 23.0 mg/kg/injection, schedule: Q01DX Z (sc), vehicle: other
  T/C: 100 % of control
dose: 39.0 mg/kg/injection, schedule: Q01DX Z (sc), vehicle: other
  T/C: 100 % of control
dose: 65.0 mg/kg/injection, schedule: Q01DX Z (sc), vehicle: other
  T/C: 100 % of control
dose: 108.0 mg/kg/injection, schedule: Q01DX Z (sc), vehicle: other
  T/C: 110 % of control
dose: 180.0 mg/kg/injection, schedule: Q01DX Z (sc), vehicle: other
  T/C: 110 % of control
dose: 300.0 mg/kg/injection, schedule: Q01DX Z (sc), vehicle: other
  T/C: 100 % of control

## CN(C)CCN(Cc1ccccc1)c1ccccn1
dose: 16.0 mg/kg/injection, schedule: Q01DX001 (sc), vehicle: saline
  T/C: 95 % of control and 100 % of control
dose: 20.0 mg/kg/injection, schedule: Q01DX001 (sc), vehicle: saline
  T/C: 97 % of control and 100 % of control
dose: 24.0 mg/kg/injection, schedule: Q01DX001 (sc), vehicle: saline
  T/C: 96 % of control and 100 % of control
dose: 30.0 mg/kg/injection, schedule: Q01DX001 (sc), vehicle: saline
  T/C: 98 % of control and 100 % of control

## NC(CSC(c1ccccc1)(c1ccccc1)c1ccccc1)C(=O)O (centres undefined)
dose: 5.0 mg/kg/injection, schedule: Q03HX003 (sc), vehicle: saline
  T/C: 114 % of control
dose: 8.4 mg/kg/injection, schedule: Q03HX003 (sc), vehicle: saline
  T/C: 117 % of control
dose: 23.0 mg/kg/injection, schedule: Q03HX003 (sc), vehicle: saline
  T/C: 150 % of control
dose: 39.0 mg/kg/injection, schedule: Q03HX003 (sc), vehicle: saline
  T/C: 92 % of control
dose: 65.0 mg/kg/injection, schedule: Q01DX009 (sc), vehicle: saline
  T/C: 150 % of control
dose: 108.0 mg/kg/injection, schedule: Q04DX003 (sc), vehicle: saline
  T/C: 121 % of control
dose: 300.0 mg/kg/injection, schedule: Q02DX005 (sc), vehicle: saline
  T/C: 89 % of control
dose: 500.0 mg/kg/injection, schedule: Q02DX005 (sc), vehicle: saline
  T/C: 92 % of control
dose: 833.0 mg/kg/injection, schedule: Q04DX003 (sc), vehicle: saline
  T/C: 114 % of control
